Data taken from ChEMBL document CHEMBL5154788 (Eur J Med Chem, 2022).
≈ marks a conversion by molar mass, not a printed value.

Experiments:
[1] = target: Transient receptor potential cation channel subfamily V member 1 (Homo sapiens, UniProt Q8NER1); assay: Antagonist activity at human TRPV1 expressed in CHO cells assessed as inhibition of capsaicin-induced Ca2+ influx incubated for 30 mins by FLIPR method; assay type: cell-based
[2] = Drug concentration in rat brain at 10 mg/kg, iv measured after 0.5 hrs by HPLC analysis; assay type: ADME, organism-based; conditions: read-out: Ct
[3] = target: Transient receptor potential cation channel subfamily A member 1 (Homo sapiens, UniProt O75762); assay: Antagonist activity against human TRPA1 expressed in HEK293 cells assessed as inhibition of AITC-induced intracellular calcium accumulation incubated for 30 mins by FLIPR assay; assay type: cell-based
Chain of Transient receptor potential cation channel subfamily A member 1 (O75762 whole entry): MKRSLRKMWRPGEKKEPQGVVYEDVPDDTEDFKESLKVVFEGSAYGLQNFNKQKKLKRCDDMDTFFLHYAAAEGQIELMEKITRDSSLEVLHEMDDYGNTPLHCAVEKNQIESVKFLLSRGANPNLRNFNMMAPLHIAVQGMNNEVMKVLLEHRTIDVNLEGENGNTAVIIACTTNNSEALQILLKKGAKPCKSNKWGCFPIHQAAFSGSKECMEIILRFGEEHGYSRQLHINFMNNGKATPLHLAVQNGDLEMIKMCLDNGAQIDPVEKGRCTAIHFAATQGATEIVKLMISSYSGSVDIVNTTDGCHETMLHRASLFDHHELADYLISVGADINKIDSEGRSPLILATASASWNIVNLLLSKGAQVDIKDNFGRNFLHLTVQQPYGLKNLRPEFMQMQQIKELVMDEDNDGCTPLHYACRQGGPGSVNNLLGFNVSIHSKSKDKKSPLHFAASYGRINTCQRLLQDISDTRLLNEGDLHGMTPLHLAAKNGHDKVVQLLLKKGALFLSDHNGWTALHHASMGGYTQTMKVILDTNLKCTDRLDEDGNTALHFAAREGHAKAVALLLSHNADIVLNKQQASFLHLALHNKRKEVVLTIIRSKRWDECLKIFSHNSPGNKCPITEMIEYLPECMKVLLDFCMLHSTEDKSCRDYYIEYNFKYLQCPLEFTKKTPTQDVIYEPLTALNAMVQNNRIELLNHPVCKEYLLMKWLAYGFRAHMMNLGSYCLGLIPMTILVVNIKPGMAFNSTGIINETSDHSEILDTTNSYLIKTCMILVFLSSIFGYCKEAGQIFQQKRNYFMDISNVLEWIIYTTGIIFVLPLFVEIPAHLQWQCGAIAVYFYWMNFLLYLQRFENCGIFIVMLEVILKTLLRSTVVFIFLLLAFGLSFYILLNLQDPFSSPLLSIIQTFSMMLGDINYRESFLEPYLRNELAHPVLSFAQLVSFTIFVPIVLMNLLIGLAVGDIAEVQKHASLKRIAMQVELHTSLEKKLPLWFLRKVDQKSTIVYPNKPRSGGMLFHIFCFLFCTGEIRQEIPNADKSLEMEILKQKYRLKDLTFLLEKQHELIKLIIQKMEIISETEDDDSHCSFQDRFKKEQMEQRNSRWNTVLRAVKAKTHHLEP

[4] = target: T1, Transient receptor potential cation channel subfamily V member 3 (Homo sapiens, UniProt Q8NET8); assay: Antagonist activity against human TRPV3 expressed in HEK293 cells assessed as inhibition of 2-APb induced intracellular calcium accumulation incubated for 30 mins by FLIPR assay; assay type: cell-based
T1 sequence (Q8NET8 whole entry): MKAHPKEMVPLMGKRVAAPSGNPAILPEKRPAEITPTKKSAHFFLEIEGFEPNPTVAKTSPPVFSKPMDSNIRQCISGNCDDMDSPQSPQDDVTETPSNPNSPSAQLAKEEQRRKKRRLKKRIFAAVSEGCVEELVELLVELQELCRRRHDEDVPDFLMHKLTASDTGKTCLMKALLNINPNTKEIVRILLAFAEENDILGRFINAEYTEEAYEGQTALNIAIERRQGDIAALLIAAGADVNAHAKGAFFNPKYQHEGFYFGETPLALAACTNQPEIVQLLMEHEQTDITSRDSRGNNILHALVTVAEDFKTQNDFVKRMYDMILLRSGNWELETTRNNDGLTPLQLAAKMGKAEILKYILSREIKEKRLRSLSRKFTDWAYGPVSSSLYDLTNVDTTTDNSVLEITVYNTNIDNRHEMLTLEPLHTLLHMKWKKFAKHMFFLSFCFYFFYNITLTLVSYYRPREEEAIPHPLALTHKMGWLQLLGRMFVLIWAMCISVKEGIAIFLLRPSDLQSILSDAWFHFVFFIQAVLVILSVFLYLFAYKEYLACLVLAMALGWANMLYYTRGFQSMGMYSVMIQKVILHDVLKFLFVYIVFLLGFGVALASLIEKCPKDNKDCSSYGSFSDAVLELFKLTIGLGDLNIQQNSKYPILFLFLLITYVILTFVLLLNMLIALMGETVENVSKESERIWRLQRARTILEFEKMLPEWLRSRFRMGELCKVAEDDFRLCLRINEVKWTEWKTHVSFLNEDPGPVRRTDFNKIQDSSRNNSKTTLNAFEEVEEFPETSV

[5] = Half life in Sprague-Dawley rat at 10 mg/kg, iv measured after 12 hrs by UPLC-QTOF/MS analysis; assay type: ADME, organism-based; conditions: in vivo
[6] = MRT in Sprague-Dawley rat at 20 mg/kg, po measured after 12 hrs by UPLC-QTOF/MS analysis; assay type: ADME, organism-based; conditions: in vivo
[7] = MRT in Sprague-Dawley rat at 10 mg/kg, iv measured after 12 hrs by UPLC-QTOF/MS analysis; assay type: ADME, organism-based; conditions: in vivo
[8] = Clearance in Sprague-Dawley rat at 20 mg/kg, po measured after 12 hrs by UPLC-QTOF/MS analysis; assay type: ADME, organism-based; conditions: in vivo
[9] = Ratio of drug level in brain to plasma in rat at 10 mg/kg, iv measured after 0.5 hrs by HPLC analysis; assay type: ADME, organism-based; conditions: read-out: BPR
[10] = Volume of distribution in Sprague-Dawley rat at 20 mg/kg, po measured after 12 hrs post dose by UPLC-QTOF/MS analysis; assay type: ADME, organism-based; conditions: in vivo
[11] = Tmax in Sprague-Dawley rat at 20 mg/kg, po measured after 12 hrs by UPLC-QTOF/MS analysis; assay type: ADME, organism-based; conditions: in vivo
[12] = Toxicity in rat assessed as effect on body temperature at 10 to 100 mg/kg, po measured for 120 mins by electric probe thermometer analysis; assay type: organism-based; conditions: in vivo, 2 h, dose 10-100 mg/kg
[13] = Clearance in Sprague-Dawley rat at 10 mg/kg, iv measured after 12 hrs by UPLC-QTOF/MS analysis; assay type: ADME, organism-based; conditions: in vivo
[14] = Cmax in Sprague-Dawley rat at 20 mg/kg, po measured after 12 hrs by UPLC-QTOF/MS analysis; assay type: ADME, organism-based; set-up: dose 20 mg/kg, time 12 hrs, route po; conditions: in vivo
[15] = AUC (0 to infinity) in Sprague-Dawley rat at 10 mg/kg, iv by UPLC-QTOF/MS analysis; assay type: ADME, organism-based; set-up: time infinity, dose 10 mg/kg, route iv; conditions: in vivo
[16] = Elimination rate constant (K10) in Sprague-Dawley rat at 20 mg/kg, po measured after 12 hrs by UPLC-QTOF/MS analysis; assay type: ADME, organism-based; conditions: in vivo
[17] = Elimination rate constant half life (k10) in Sprague-Dawley rat at 20 mg/kg, po measured after 12 hrs by UPLC-QTOF/MS analysis; assay type: ADME, organism-based; conditions: in vivo, read-out: beta t1/2 (converted)
[18] = Oral bioavailability in Sprague-Dawley rat at 20 mg/kg measured after 12 hrs by UPLC-QTOF/MS analysis; assay type: ADME, organism-based; conditions: in vivo
[19] = Elimination rate constant (K10) in Sprague-Dawley rat at 10 mg/kg, iv measured after 12 hrs by UPLC-QTOF/MS analysis; assay type: ADME, organism-based; conditions: in vivo
[20] = Aqueous solubility of compound at pH 7.4 incubated for 2 hrs by LC-UV/MS analysis; assay type: physicochemical; conditions: buffer
[21] = Drug concentration in rat plasma at 10 mg/kg, iv measured after 0.5 hrs by HPLC analysis; assay type: ADME, organism-based
[22] = AUC (0 to infinity) in Sprague-Dawley rat at 20 mg/kg, po by UPLC-QTOF/MS analysis; assay type: ADME, organism-based; set-up: time infinity, dose 20 mg/kg, route po; conditions: in vivo
[23] = Toxicity in rat assessed as increase in body temperature at 30 mg/kg, po measured for 180 mins by electric probe thermometer analysis; assay type: organism-based; conditions: in vivo, 3 h
[24] = target: Transient receptor potential cation channel subfamily M member 8 (Homo sapiens, UniProt Q7Z2W7); assay: Antagonist activity against human TRPM8 expressed in HEK293 cells assessed as inhibition of […]-gated currents by whole cell patch clamp electrophysiology; assay type: cell-based
Chain of Transient receptor potential cation channel subfamily M member 8 (Q7Z2W7 whole entry): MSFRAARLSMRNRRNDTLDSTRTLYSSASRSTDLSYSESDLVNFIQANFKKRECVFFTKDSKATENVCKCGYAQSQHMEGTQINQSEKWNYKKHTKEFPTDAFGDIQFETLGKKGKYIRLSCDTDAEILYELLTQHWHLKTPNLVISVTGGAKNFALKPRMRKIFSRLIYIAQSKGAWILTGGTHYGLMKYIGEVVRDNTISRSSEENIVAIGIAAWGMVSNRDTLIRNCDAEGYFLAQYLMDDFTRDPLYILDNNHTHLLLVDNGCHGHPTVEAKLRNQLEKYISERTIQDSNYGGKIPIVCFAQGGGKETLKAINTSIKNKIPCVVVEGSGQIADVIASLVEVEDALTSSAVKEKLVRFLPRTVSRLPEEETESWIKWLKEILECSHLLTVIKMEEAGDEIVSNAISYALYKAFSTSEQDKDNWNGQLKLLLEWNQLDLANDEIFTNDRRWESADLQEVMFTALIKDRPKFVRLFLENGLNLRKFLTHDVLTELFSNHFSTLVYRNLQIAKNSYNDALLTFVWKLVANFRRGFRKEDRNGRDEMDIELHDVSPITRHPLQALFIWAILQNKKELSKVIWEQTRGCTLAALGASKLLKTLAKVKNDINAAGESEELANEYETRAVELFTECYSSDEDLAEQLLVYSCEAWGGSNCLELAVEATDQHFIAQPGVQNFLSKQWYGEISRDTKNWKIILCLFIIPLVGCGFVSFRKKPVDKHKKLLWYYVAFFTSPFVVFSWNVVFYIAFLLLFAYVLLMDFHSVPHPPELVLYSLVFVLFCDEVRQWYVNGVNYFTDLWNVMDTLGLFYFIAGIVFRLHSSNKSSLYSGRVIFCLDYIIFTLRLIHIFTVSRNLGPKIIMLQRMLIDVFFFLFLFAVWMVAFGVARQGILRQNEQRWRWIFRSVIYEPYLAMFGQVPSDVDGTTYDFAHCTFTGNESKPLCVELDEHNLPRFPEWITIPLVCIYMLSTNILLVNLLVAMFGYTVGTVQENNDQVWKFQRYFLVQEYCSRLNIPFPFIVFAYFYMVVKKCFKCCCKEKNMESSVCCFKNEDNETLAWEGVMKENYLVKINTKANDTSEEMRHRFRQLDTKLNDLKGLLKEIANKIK

Chain of Transient receptor potential cation channel subfamily V member 1 (Q8NER1 whole entry): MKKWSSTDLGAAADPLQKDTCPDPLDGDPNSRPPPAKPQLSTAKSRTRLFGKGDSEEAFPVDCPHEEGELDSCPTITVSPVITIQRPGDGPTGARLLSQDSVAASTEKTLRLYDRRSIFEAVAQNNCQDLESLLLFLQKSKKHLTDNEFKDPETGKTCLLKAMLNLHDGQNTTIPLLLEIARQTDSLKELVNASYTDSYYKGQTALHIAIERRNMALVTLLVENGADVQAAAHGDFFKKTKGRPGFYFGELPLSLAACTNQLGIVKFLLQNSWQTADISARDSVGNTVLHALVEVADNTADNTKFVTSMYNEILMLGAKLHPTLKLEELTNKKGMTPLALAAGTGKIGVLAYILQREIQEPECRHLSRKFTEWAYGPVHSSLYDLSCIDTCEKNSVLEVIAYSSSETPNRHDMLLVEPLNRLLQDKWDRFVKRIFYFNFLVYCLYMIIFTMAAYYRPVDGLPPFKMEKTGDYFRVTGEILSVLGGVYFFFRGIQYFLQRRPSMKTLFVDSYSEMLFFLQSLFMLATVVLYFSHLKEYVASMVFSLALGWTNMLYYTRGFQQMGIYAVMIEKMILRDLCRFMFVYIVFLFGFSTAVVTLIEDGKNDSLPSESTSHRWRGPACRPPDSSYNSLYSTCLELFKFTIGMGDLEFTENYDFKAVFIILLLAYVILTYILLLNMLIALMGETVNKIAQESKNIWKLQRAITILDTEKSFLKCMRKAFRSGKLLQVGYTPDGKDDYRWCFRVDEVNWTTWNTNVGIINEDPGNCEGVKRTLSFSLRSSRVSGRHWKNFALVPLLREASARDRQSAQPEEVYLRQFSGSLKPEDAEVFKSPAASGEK

## Cc1ccc(NC(=O)N2CCC[C@H]2c2ncc(-c3ccccc3)s2)c([N+](=O)[O-])c1
[1]
  IC50: 23.9 nM

## O=C(Nc1ccc(Cl)cc1)N1CCC[C@H]1c1nc(-c2ccc(F)cc2)cs1
[1]
  IC50: 10.7 nM

## CC(C)c1cccc(NC(=O)N2CCC[C@H]2c2ncc(-c3ccccc3)s2)c1
[2]
  concentration at 0.5 h: 2310 ng/g
[3]
  IC50: > 100 µM
[4]
  IC50: > 100 µM
[5]
  half-life: 6.36 min
[6]
  MRT: 1.43 h
[7]
  MRT: 9.18 min
[8]
  clearance: 22 L/h/kg
[9]
  Kp at 0.5 h: 1.66
[1]
  IC50: 2.66 nM
[10]
  Vd: 16 L/kg
[11]
  Tmax: 42.7 min
[12]
  Activity: Non-Toxic
[13]
  clearance: 24 L/h/kg
[14]
  Cmax: 311 ng/mL
[15]
  AUC: 495.955 ng·h/mL
[16]
  k el at 12 h: 0.000315 s⁻¹
[17]
  half-life: 31.6 min
[18]
  bioavailability: 60%
[19]
  k el at 12 h: 0.00335 s⁻¹
[20]
  solubility at 2 h: 26 µg/mL (≈ 66.4 µM)
[21]
  concentration at 0.5 h: 1400 ng/g
[22]
  AUC: 598.873 ng·h/mL
[23]
  Activity: Non-Toxic

## COc1ccccc1NC(=O)N1CCC[C@H]1c1nc(-c2ccc(F)cc2)cs1
[1]
  IC50: 5.71 nM
[23]
  Activity: Toxic

## O=C(Nc1ccc(F)cc1)N1CCC[C@H]1c1nc(-c2ccc(F)cc2)cs1
[1]
  IC50: 24.6 nM

## O=C(Nc1cccc2cnccc12)N1CCC[C@H]1c1nc(-c2ccccc2)cs1
[1]
  IC50: 67.6 nM

## O=C(Nc1ccccc1[N+](=O)[O-])N1CCC[C@H]1c1ncc(-c2ccccc2)s1
[1]
  IC50: 12.4 nM

## Cc1ccc(C)c(NC(=O)N2CCC[C@H]2c2nc(-c3ccccc3)cs2)c1
[1]
  IC50: 44.4 nM

## O=C(Nc1ccccc1Br)N[C@@H]1CCN(c2ccc(C(F)(F)F)cn2)C1 [SB-705498]
[9]
  Kp at 0.5 h: 0.5
[1]
  IC50: 9.24 nM
[24]
  IC50: 1600 nM
[23]
  Activity: Non-Toxic

## O=C(Nc1cccc2cnccc12)N1CCC[C@H]1c1nc(-c2ccc(F)cc2)cs1
[1]
  IC50: 24.3 nM

## O=C(Nc1ccc(F)cc1)N1CCC[C@H]1c1nc(-c2ccccc2)cs1
[1]
  IC50: 31.6 nM

## CC(C)c1ccccc1NC(=O)N1CCC[C@H]1c1ncc(-c2ccccc2)s1
[1]
  IC50: 5.32 nM

## O=C(Nc1cccc2cnccc12)N1CCC[C@H]1c1nc(-c2cccc(F)c2)cs1
[1]
  IC50: 80.6 nM
